Measurements: patent US10405547B2, “Substituted cyclic amides as herbicides” (FMC Corporation, priority 2015, dated 2019)

Experiments:
Type in all cases: in vivo
[1] = test system: galium (catchweed bedstraw, Galium aparine); test: Test A postemergence, galium; conditions: 0 to 100 scale (0 no effect, 100 complete control)
How it was run: (§1)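 Greenhouse pot test in loam/sand soil. Pre: directed soil spray after seeding. Post: 1–2-leaf plants, 2–10 cm. Formulation: non-phytotoxic solvent + surfactant. Visual rating vs untreated controls at ~10 d, 0 (no effect) to 100 (complete control).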

[2] = test system: barnyardgrass (Echinochloa crus-galli); test: Test A preemergence, barnyardgrass; conditions: 0 to 100 scale (0 no effect, 100 complete control)
How it was run: as §1

kochia (Kochia scoparia) [3] = test: Test A preemergence, kochia; conditions: 0 to 100 scale (0 no effect, 100 complete control)
How it was run: as §1

[4] = test system: pigweed (Amaranthus retroflexus); test: Test A preemergence, pigweed; conditions: 0 to 100 scale (0 no effect, 100 complete control)
How it was run: as §1

[5] = test system: ragweed (common ragweed, Ambrosia elatior); test: Test A preemergence, ragweed; conditions: 0 to 100 scale (0 no effect, 100 complete control)
How it was run: as §1

[6] = test system: foxtail, giant (Setaria faberii); test: Test A preemergence, giant foxtail; conditions: 0 to 100 scale (0 no effect, 100 complete control)
How it was run: as §1

[7] = test system: blackgrass (Alopecurus myosuroides); test: Test A postemergence, blackgrass; conditions: 0 to 100 scale (0 no effect, 100 complete control)
How it was run: as §1

[8] = test system: foxtail, giant (Setaria faberii); test: Test A postemergence, giant foxtail; conditions: 0 to 100 scale (0 no effect, 100 complete control)
How it was run: as §1

corn (Zea mays) = test: Test A postemergence, corn; conditions: 0 to 100 scale (0 no effect, 100 complete control)
How it was run: as §1

[9] = test system: barnyardgrass (Echinochloa crus-galli); test: Test B flooded paddy test, barnyardgrass; conditions: 250 g ai/ha, applied to paddy water, visual rating after 13 to 15 days, scale 0 (no effect) to 100 (complete control)
From the text: (§2) At time of treatment, test pots were flooded to 3 cm above the soil surface, treated by application of test compounds directly to the paddy water, and then maintained at that water depth for the duration of the test. Treated plants and controls were maintained in a greenhouse for 13 to 15 days, after which time all species were compared to controls and visually evaluated. […] A dash (-) response means no test result.

[10] = test system: barnyardgrass (Echinochloa crus-galli); test: Test A postemergence, barnyardgrass; conditions: 0 to 100 scale (0 no effect, 100 complete control)
How it was run: as §1

[11] = test system: pigweed (Amaranthus retroflexus); test: Test A postemergence, pigweed; conditions: 0 to 100 scale (0 no effect, 100 complete control)
How it was run: as §1

[12] = test system: sedge, umbrella (small-flower umbrella sedge, Cyperus difformis); test: Test B flooded paddy test, umbrella sedge; conditions: 250 g ai/ha, applied to paddy water, visual rating after 13 to 15 days, scale 0 (no effect) to 100 (complete control)
From the text: as §2

[13] = test system: ryegrass, Italian (Lolium multiflorum); test: Test A preemergence, Italian ryegrass; conditions: 0 to 100 scale (0 no effect, 100 complete control)
How it was run: as §1

[14] = test system: wheat (Triticum aestivum); test: Test A postemergence, wheat; conditions: 0 to 100 scale (0 no effect, 100 complete control)
How it was run: as §1

rice (Oryza sativa) = test: Test B flooded paddy test, rice; conditions: 250 g ai/ha, applied to paddy water, visual rating after 13 to 15 days, scale 0 (no effect) to 100 (complete control)
From the text: as §2

[15] = test system: ragweed (common ragweed, Ambrosia elatior); test: Test A postemergence, ragweed; conditions: 0 to 100 scale (0 no effect, 100 complete control)
How it was run: as §1

[16] = test system: ryegrass, Italian (Lolium multiflorum); test: Test A postemergence, Italian ryegrass; conditions: 0 to 100 scale (0 no effect, 100 complete control)
How it was run: as §1

[17] = test system: ducksalad (Heteranthera limosa); test: Test B flooded paddy test, ducksalad; conditions: 250 g ai/ha, applied to paddy water, visual rating after 13 to 15 days, scale 0 (no effect) to 100 (complete control)
From the text: as §2

kochia (Kochia scoparia) [18] = test: Test A postemergence, kochia; conditions: 0 to 100 scale (0 no effect, 100 complete control)
How it was run: as §1

[19] = 125 g ai/ha, visual injury, approximately 10 days
[20] = 500 g ai/ha, visual injury, approximately 10 days

| Structure (SMILES) | Plant response rating, Galium [1, 19] | Plant response rating, Galium [1, 20] | Plant response rating, Barnyardgrass ([2]; 125 g ai/ha) | Plant response rating, Barnyardgrass ([2]; 500 g ai/ha) | Plant response rating, Kochia (kochia (Kochia scoparia) [3]; 125 g ai/ha) | Plant response rating, Kochia (kochia (Kochia scoparia) [3]; 500 g ai/ha) | Plant response rating, Pigweed ([4]; 125 g ai/ha) | Plant response rating, Pigweed ([4]; 500 g ai/ha) | Plant response rating, Ragweed ([5]; 125 g ai/ha) | Plant response rating, Ragweed ([5]; 500 g ai/ha) | Plant response rating, Foxtail, Giant ([6]; 125 g ai/ha) | Plant response rating, Blackgrass [7, 19] | Plant response rating, Foxtail, Giant [8, 19] | Plant response rating, Corn (corn (Zea mays); [19]) | Plant response rating, Barnyardgrass [10, 19] | Plant response rating, Pigweed [11, 19] | Plant response rating, Ryegrass, Italian ([13]; 125 g ai/ha) | Plant response rating, Wheat [14, 19] | Plant response rating, Ragweed [15, 19] | Plant response rating, Ryegrass, Italian [16, 19] | further results |
| --- | --- | --- | --- | --- | --- | --- | --- | --- | --- | --- | --- | --- | --- | --- | --- | --- | --- | --- | --- | --- | --- |
| CN1CC(c2cccc(Oc3ccc(F)cn3)c2)C(C(=O)Nc2cccc(F)c2F)C1=O (single isomer, unassigned) [Compound 61] | 60 | 70 | 90 | 90 | 60 | 80 | 70 | 90 | 30 | 60 | 90 | 40 | 90 | 70 | 70 | 40 | 80 | 50 | 40 | 70 | Plant response rating, Foxtail, Giant ([6]; 500 g ai/ha): 90; Plant response rating, Blackgrass [7, 20]: 50; Plant response rating, Foxtail, Giant [8, 20]: 90; Plant response rating, Corn (corn (Zea mays); [20]): 90; Plant response rating, Barnyardgrass (Flood) [9]: 40; Plant response rating, Barnyardgrass [10, 20]: 80; Plant response rating, Pigweed [11, 20]: 70; Plant response rating, Sedge, Umbrella (Flood) [12]: 0; Plant response rating, Ryegrass, Italian ([13]; 500 g ai/ha): 90; Plant response rating, Wheat [14, 20]: 80; Plant response rating, Rice (Flood) (rice (Oryza sativa)): 0; Plant response rating, Ragweed [15, 20]: 50; Plant response rating, Ryegrass, Italian [16, 20]: 70; Plant response rating, Ducksalad (Flood) [17]: 100 |
| CN1CC(c2cccc(Oc3ccc(F)cn3)c2)C(C(=O)Nc2ccccc2F)C1=O (single isomer, unassigned) [Compound 60] | 30 | 60 | 90 | 90 | 70 | 80 | 60 | 50 | 40 | 50 | 90 | 0 | 80 | 30 | 70 | 0 | 20 | 0 | 0 | 30 | Plant response rating, Foxtail, Giant ([6]; 500 g ai/ha): 90; Plant response rating, Blackgrass [7, 20]: 30; Plant response rating, Foxtail, Giant [8, 20]: 90; Plant response rating, Corn (corn (Zea mays); [20]): 50; Plant response rating, Barnyardgrass (Flood) [9]: 65; Plant response rating, Barnyardgrass [10, 20]: 90; Plant response rating, Pigweed [11, 20]: 40; Plant response rating, Sedge, Umbrella (Flood) [12]: 0; Plant response rating, Ryegrass, Italian ([13]; 500 g ai/ha): 70; Plant response rating, Wheat [14, 20]: 70; Plant response rating, Rice (Flood) (rice (Oryza sativa)): 0; Plant response rating, Ragweed [15, 20]: 40; Plant response rating, Ryegrass, Italian [16, 20]: 50; Plant response rating, Ducksalad (Flood) [17]: 100 |
| O=C1NCC(c2cccc(Oc3ccc(C(F)(F)F)cn3)c2)C1C(=O)Nc1ccccc1F (single isomer, unassigned) [Compound 62] | 30 | 60 | 90 | 90 | 30 | 60 | 30 | 50 | 0 | 50 | 90 | 0 | 80 | 30 | 70 | 0 | 0 | 0 | 0 | 0 | Plant response rating, Foxtail, Giant ([6]; 500 g ai/ha): 90; Plant response rating, Blackgrass [7, 20]: 30; Plant response rating, Foxtail, Giant [8, 20]: 90; Plant response rating, Corn (corn (Zea mays); [20]): 30; Plant response rating, Barnyardgrass (Flood) [9]: 40; Plant response rating, Barnyardgrass [10, 20]: 90; Plant response rating, Pigweed [11, 20]: 30; Plant response rating, Sedge, Umbrella (Flood) [12]: 0; Plant response rating, Ryegrass, Italian ([13]; 500 g ai/ha): 20; Plant response rating, Wheat [14, 20]: 30; Plant response rating, Rice (Flood) (rice (Oryza sativa)): 20; Plant response rating, Ragweed [15, 20]: 40; Plant response rating, Ryegrass, Italian [16, 20]: 30; Plant response rating, Ducksalad (Flood) [17]: 100 |
| CN1CC(c2cccc(Oc3ncc(F)cc3F)c2)C(C(=O)Nc2ccc(F)c(F)c2F)C1=O (single isomer, unassigned) [Compound 74] | 70 |  | 90 |  | 40 |  | 80 |  | 0 |  | 100 | 20 | 80 | 20 | 90 | 60 | 80 | 20 | 20 | 30 | Plant response rating, Galium ([1]; 31 g ai/ha): 40; Plant response rating, Barnyardgrass ([2]; 31 g ai/ha): 70; Plant response rating, Kochia (kochia (Kochia scoparia) [3]; 31 g ai/ha): 0; Plant response rating, Pigweed ([4]; 31 g ai/ha): 0; Plant response rating, Ragweed ([5]; 31 g ai/ha): 0; Plant response rating, Foxtail, Giant ([6]; 31 g ai/ha): 90; Plant response rating, Blackgrass ([7]; 31 g ai/ha): 0; Plant response rating, Foxtail, Giant ([8]; 31 g ai/ha): 70; Plant response rating, Corn (corn (Zea mays); 31 g ai/ha): 0; Plant response rating, Kochia (kochia (Kochia scoparia) [18]; 31 g ai/ha): 20; Plant response rating, Kochia (kochia (Kochia scoparia) [18]; [19]): 50; Plant response rating, Barnyardgrass ([10]; 31 g ai/ha): 60; Plant response rating, Pigweed ([11]; 31 g ai/ha): 0; Plant response rating, Ryegrass, Italian ([13]; 31 g ai/ha): 30; Plant response rating, Wheat ([14]; 31 g ai/ha): 0; Plant response rating, Ragweed ([15]; 31 g ai/ha): 0; Plant response rating, Ryegrass, Italian ([16]; 31 g ai/ha): 0 |
